Source: ChEMBL document CHEMBL3393055, “6,6-Fused heterocyclic ureas as highly potent TRPV1 antagonists” (Bioorg Med Chem Lett, 2015)

Experiments:
[1] = target: T1, Transient receptor potential cation channel subfamily V member 1 (Homo sapiens, UniProt Q8NER1); assay: Antagonist activity at human TRPV1 assessed as inhibition of capsaicin-induced effect by FLIPR assay
[2] = target: T1, Transient receptor potential cation channel subfamily V member 1; assay: Antagonist activity at human TRPV1 assessed as inhibition of capsaicin-induced effect at 1 uM by FLIPR assay
[3] = target: T1, Transient receptor potential cation channel subfamily V member 1; assay: Antagonist activity at human TRPV1 assessed as inhibition of NADA-induced effect at 1 uM by FLIPR assay
[4] = target: T1, Transient receptor potential cation channel subfamily V member 1; assay: Antagonist activity at human TRPV1 assessed as inhibition of 45 degC heat-induced effect at 1 uM by FLIPR assay
Mus musculus [5] = assay: Analgesic activity in formalin-induced mouse pain model at 10 mg/kg, po; format: functional
Mus musculus [6] = assay: Analgesic activity in formalin-induced mouse pain model at 0.3 mg/kg, po; format: functional
[7] = target: T1, Transient receptor potential cation channel subfamily V member 1; assay: Antagonist activity at human TRPV1 assessed as inhibition of pH-induced effect at 1 uM by FLIPR assay

T1 sequence (Q8NER1 whole entry): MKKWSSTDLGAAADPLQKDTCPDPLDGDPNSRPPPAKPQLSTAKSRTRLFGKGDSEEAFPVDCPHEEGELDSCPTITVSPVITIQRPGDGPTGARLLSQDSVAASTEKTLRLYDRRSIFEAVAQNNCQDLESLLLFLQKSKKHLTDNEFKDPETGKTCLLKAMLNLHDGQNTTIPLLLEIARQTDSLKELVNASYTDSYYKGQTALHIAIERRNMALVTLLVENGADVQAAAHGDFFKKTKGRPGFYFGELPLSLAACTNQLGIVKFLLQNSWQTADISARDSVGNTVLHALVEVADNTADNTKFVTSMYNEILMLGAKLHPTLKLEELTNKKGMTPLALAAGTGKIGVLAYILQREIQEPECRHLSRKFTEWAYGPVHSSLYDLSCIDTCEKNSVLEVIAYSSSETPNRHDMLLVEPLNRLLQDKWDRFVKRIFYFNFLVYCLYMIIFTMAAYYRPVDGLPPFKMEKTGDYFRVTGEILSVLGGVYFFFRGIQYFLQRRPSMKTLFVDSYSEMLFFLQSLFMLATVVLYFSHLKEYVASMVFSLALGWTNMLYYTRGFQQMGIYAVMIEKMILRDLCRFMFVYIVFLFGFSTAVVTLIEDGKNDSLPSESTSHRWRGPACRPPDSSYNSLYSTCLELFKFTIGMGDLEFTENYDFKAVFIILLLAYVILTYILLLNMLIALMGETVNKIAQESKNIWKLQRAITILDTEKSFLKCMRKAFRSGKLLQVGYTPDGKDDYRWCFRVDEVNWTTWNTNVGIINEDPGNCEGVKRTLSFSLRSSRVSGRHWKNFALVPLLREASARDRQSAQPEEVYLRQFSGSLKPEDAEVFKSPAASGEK

Ki ([1]; read-out: Ki) [nM] | Structure (SMILES) | other results
1.8 | CC1CCN(c2nc(C(F)(F)F)ccc2CNC(=O)Nc2cncc3ccccc23)CC1 | –
0.4 | CC1CCN(c2nc(C(F)(F)F)ccc2CNC(=O)Nc2cccc3ccncc23)CC1 | –
– | CC1CCN(c2nc(C(F)(F)F)ccc2CNC(=O)Nc2ccnc3ccccc23)CC1 | Ki [1]: Agonist
0.7 | CC1CCN(c2nc(C(F)(F)F)ccc2CNC(=O)Nc2cccc3ncccc23)CC1 | –
– | CC1CCN(c2nc(C(F)(F)F)ccc2CNC(=O)Nc2cc3ccccc3cn2)CC1 | inhibition [2]: 10%
– | CC1CCN(c2nc(C(F)(F)F)ccc2CNC(=O)Nc2ccc3ncccc3c2)CC1 | inhibition [2]: 40%
– | CC1CCN(c2nc(C(F)(F)F)ccc2CNC(=O)Nc2ccc3ccccc3n2)CC1 | Ki [1]: Not Active
48.1 | CC1CCN(c2nc(C(F)(F)F)ccc2CNC(=O)Nc2cccc3nccnc23)CC1 | –
8.9 | CC1CCN(c2nc(C(F)(F)F)ccc2CNC(=O)Nc2ccc3cnncc3c2)CC1 | –
8.4 | CC1CCN(c2nc(C(F)(F)F)ccc2CNC(=O)Nc2ccc3ccncc3c2)CC1 | –
– | CC1CCN(c2nc(C(F)(F)F)ccc2CNC(=O)Nc2nccc3ccccc23)CC1 | Ki [1]: Not Active
– | CC1CCN(c2nc(C(F)(F)F)ccc2CNC(=O)Nc2ccc3ncncc3c2)CC1 | Ki [1]: Agonist
7.1 | CC1CCN(c2nc(C(F)(F)F)ccc2CNC(=O)Nc2ccc3cccnc3c2)CC1 | –
7.2 | CC1CCN(c2nc(C(F)(F)F)ccc2CNC(=O)Nc2ccc3cnccc3c2)CC1 | –
7.8 | CC1CCN(c2nc(C(F)(F)F)ccc2CNC(=O)Nc2ccc3cncnc3c2)CC1 | –
9.5 | CC1CCN(c2nc(C(F)(F)F)ccc2CNC(=O)Nc2cnc3ccccc3c2)CC1 | –
18.3 | O=C(NCc1ccc(C(F)(F)F)cc1)Nc1cccc2cnccc12 | –
13.8 | CC(C)(C)c1ccc(CNC(=O)Nc2cccc3cnccc23)cc1 | –
0.2 | CC1CCN(c2nc(C(F)(F)F)ccc2CNC(=O)Nc2cccc3cnccc23)CC1 | Ki [3]: 0.02 nM; IC50 [4]: 0.55 nM; MPE (Mus musculus [5]): 73%; MPE (Mus musculus [6]): 18%; IC50 [7]: Not Active
91.6 | CC1CCN(c2nc(C(F)(F)F)ccc2CNC(=O)Nc2cccc3cccnc23)CC1 | –
– | CC1CCN(c2nc(C(F)(F)F)ccc2CNC(=O)Nc2nccc3cccnc23)CC1 | Ki [1]: Not Active
